The results in this text go back to ChEMBL document CHEMBL1155926, “Parallel synthesis and antileishmanial activity of ether-linked phospholipids” (Bioorg Med Chem Lett, 2008).

In assay [1] the test system is Leishmania donovani. Kind of assay: Antileishmanial activity against Leishmania donovani axenic amastigotes after 72 hrs by serial dilution method. Format: functional, organism-based.
Assay [2] concerns Leishmania donovani. Kind of assay: Antileishmanial activity against Leishmania donovani infected macrophage. Format: functional, organism-based.

With `C[N+](C)(C)CCOP(=O)([O-])OCC(COCn1nnc2ccccc21)OCc1ccccc1` (stereo unspecified), the IC50 in the assay with Leishmania donovani [1] is over 50 µM.
The same measure, in the same setting: with `Cc1noc(C)c1COCC(COP(=O)([O-])OCC[N+](C)(C)C)Oc1ccccc1` (stereo unspecified) the figure was over 50 µM.
With `CCCCCCCCCCCCCCCCCCOC(COCn1nnc2ccccc21)COP(=O)([O-])OCC[N+](C)(C)C` (stereo unspecified), the half-maximal inhibitory concentration (IC50) is 0.66 µM in the assay on Leishmania donovani [1] and 780 nM in the assay on Leishmania donovani [2].
Regarding `CCCCOC(COCc1c(C)noc1C)COP(=O)([O-])OCC[N+](C)(C)C` (stereo unspecified), the 50% inhibitory concentration (IC50) in the assay on Leishmania donovani [1] was over 50 µM.
For `Cc1noc(C)c1COCC(COP(=O)([O-])OCC[N+](C)(C)C)OCc1cccc2ccccc12` (stereo unspecified), the IC50 in the assay on Leishmania donovani [1] is over 50 µM.
The same measure, in the same setting: with `C[N+](C)(C)CCOP(=O)([O-])OCC(COCc1ccccc1)OCc1cccc2ccccc12` (stereo unspecified) the figure was 13.8 µM.
In the assay with Leishmania donovani [1], `C[N+](C)(C)CCOP(=O)([O-])OCC(COCn1nnc2ccccc21)OCc1cccc2ccccc12` (stereo unspecified) showed an IC50 of 33.1 µM. Compared with the last molecule, the IC50 is about 2.4-fold higher.
Take `Cc1noc(C)c1COCC(COP(=O)([O-])OCC[N+](C)(C)C)OCc1ccccc1` (stereo unspecified): in the assay on Leishmania donovani [1], the IC50 is over 50 µM.
Same read-out and setting: for `C=CCOCC(COP(=O)([O-])OCC[N+](C)(C)C)OCCCCCCCCCCCCCCCCCC` (stereo unspecified) the value was 6.75 µM; for `C[N+](C)(C)CCOP(=O)([O-])OCC(COCn1nnc2ccccc21)Oc1ccccc1` (stereo unspecified), 28.2 µM; for `C[N+](C)(C)CCOP(=O)([O-])OCC(COCc1ccccc1)Oc1ccccc1` (stereo unspecified), over 50 µM.
As for `CCCCOC(COCc1ccccc1)COP(=O)([O-])OCC[N+](C)(C)C` (stereo unspecified), the half-inhibitory concentration (IC50) with Leishmania donovani [1] was over 50 µM.
Still for that read-out and setting: for `C=CCOCC(COP(=O)([O-])OCC[N+](C)(C)C)OCCCC` (stereo unspecified) the value was 42.5 µM; for `C[N+](C)(C)CCOP(=O)([O-])OCC(COCc1ccccc1)OCc1ccccc1` (stereo unspecified), 4.15 µM; for `CCCCOC(COCn1nnc2ccccc21)COP(=O)([O-])OCC[N+](C)(C)C` (stereo unspecified), over 50 µM.
`C=CCOCC(COP(=O)([O-])OCC[N+](C)(C)C)OCc1cccc2ccccc12` (stereo unspecified) yielded a concentration for half-maximal inhibition (IC50) with Leishmania donovani [1] of 26.7 µM.
In the case of `CCCCCCCCCCCCCCCCOP(=O)([O-])OCC[N+](C)(C)C` [MILTEFOSINE], the IC50 in the assay with Leishmania donovani [1] turned out to be 0.22 µM; in the assay on Leishmania donovani [2] it was 1740 nM.
Take `CCCCCCCCCCCCCCCCCCOC(COCc1c(C)noc1C)COP(=O)([O-])OCC[N+](C)(C)C` (stereo unspecified): the midpoint of inhibition in the assay on Leishmania donovani [1], the IC50, lay at 1.3 µM.
On the same count and under the same terms, with `CCCCCCCCCCCCCCCCCCOC(COCc1ccccc1)COP(=O)([O-])OCC[N+](C)(C)C` (stereo unspecified) the figure was 1.6 µM.

For orientation: IC50 means the point on the concentration scale where inhibition reaches its midpoint.
